# Results published in patent US8299048B2, “Hexahydrocyclopentyl[f]indazole sulfonamides and derivatives thereof as selective glucocorticoid receptor modulators” (Merck Sharp & Dohme Corp., priority 2008, dated 2012).
# Biological target: T1, glucocorticoid receptor (Homo sapiens, UniProt P04150)
# T1 construct: endogenous in cells
# T1 sequence (P04150 1-777): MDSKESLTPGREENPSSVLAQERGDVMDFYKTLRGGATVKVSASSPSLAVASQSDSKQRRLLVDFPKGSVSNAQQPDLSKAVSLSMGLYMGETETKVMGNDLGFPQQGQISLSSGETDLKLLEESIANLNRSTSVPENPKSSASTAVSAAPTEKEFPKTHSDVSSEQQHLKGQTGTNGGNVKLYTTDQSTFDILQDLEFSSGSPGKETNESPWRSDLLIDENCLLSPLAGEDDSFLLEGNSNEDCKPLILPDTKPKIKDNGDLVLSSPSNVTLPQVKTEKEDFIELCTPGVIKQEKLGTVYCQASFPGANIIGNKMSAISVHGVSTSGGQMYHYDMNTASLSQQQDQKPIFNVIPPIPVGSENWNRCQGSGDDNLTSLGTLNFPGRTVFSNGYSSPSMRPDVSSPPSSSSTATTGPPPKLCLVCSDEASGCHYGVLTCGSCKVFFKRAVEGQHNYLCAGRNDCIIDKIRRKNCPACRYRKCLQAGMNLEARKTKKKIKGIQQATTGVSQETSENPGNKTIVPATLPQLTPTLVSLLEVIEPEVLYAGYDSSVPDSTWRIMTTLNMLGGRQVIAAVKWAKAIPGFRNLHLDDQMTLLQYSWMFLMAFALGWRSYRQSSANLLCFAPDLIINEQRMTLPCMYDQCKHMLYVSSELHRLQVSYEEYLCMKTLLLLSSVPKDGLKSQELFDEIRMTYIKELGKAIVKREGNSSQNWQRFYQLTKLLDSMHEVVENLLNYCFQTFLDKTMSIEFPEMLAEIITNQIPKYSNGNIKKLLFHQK
# Assay: Ligand binding assay (GR BIND)
# Description: • Materials: • Binding Buffer: TEGM (10 mM Tris-HCl, 1 mM EDTA, 10% glycerol, 1 mM beta-mecaptoethanol, 10 mM Sodium Molybdate, pH 7.2) • 50% HAP Slurry: Calbiochem Hydroxylapatite, Fast Flow, in 10 mM Tris, pH 8.0 and 1 mM EDTA. • Wash Buffer: 40 mM Tris, pH7.5, 100 mM KCl, 1 mM EDTA and 1 mM EGTA.
# Phenol red-free Trypsin-EDTA is diluted in the same PBS1:10. The cell layers are rinsed with 1× Trypsin, extra Trypsin is poured out, and the cell layers are incubated at 37° C. for ˜2 min. The flask is tapped and checked for signs of cell detachment. Once the cells begin to slide off the flask, the complete media is added. The cells are counted at this point, then diluted to the appropriate concentration and split into flasks or dishes for further culturing (Usually 1:3 to 1:6 dilution).
# When the cells are 70 to 85% confluent, they are detached as described above, and collected by centrifuging at 1000 g for 10 minutes at 4° C. The cell pellet is washed twice with TEGM (10 mM Tris-HCl, 1 mM EDTA, 10% glycerol, 1 mM beta-mercaptoethanol, 10 mM Sodium Molybdate, pH 7.2). After the final wash, the cells are resuspended in TEGM at a concentration of 10^7 cells/mL. The cell suspension is snap frozen in liquid nitrogen or ethanol/dry ice bath and transferred to −80° C. freezer on dry ice. Before setting up the binding assay, the frozen samples are left on ice-water to just thaw (˜1 hr). Then the samples are centrifuged at 12,500 g to 20,000 g for 30 min at 4° C. The supernatant is used to set-up assay right away. If using 50 μL of supernatant, the test compound can be prepared in 50 μL of the TEGM buffer.
# 1×TEGM buffer is prepared, and the isotope-containing assay mixture is prepared in the following order: EtOH (2% final concentration in reaction), 3H-DEX (Amersham Biosciences) and 1×TEGM. [e.g. For 100 samples, 200 μL (100×2) of EtOH+4.25 μL of 1:10 ^3H—Dex stock+2300 μL (100×23) 1×TEGM]. The compound is serially diluted, e.g., if starting final conc. is 1 μM, and the compound is in 25 μL of solution, for duplicate samples, 75 μL of 4×1 μM solution is made and 3 μL of 100 μM is added to 72 μL of buffer, and 1:5 serial dilution.
# 25 μL of ^3H-DEX (6 nM) trace and 25 μL compound solution are first mixed together, followed by addition of 50 μL receptor solution. The reaction is gently mixed, spun briefly at about 200 rpm and incubated at 4° C. overnight. 100 μL of 50% HAP slurry is prepared and added to the incubated reaction which is then vortexed and incubated on ice for 5 to 10 minutes. The reaction mixture is vortexed twice more to resuspend HAP while incubating reaction. The samples in 96-well format are then washed in wash buffer using The FilterMate™ Universal Harvester plate washer (Packard). The washing process transfers HAP pellet containing ligand-bound expressed receptor to Unifilter-96 GF/B filter plate (Packard). The HAP pellet on the filter plate is incubated with 50 μL of MICROSCINT (Packard) scintillint for 30 minutes before being counted on the TopCount microscintillation counter (Packard). […] are calculated using DEX as a reference.
row,Compound,Ki
1,"C[C@]12Cc3cnn(-c4ccc(F)cc4)c3C=C1CC[C@@H]2CN(CCc1ccccc1F)S(=O)(=O)Cc1cccc(Cl)c1 [Example 106, 1-(3-chlorophenyl)-N-[2-(2-fluorophenyl)ethyl]-N-{[(4αR,5S)-1-(4-fluorophenyl)-4α-methyl-1,4,4α,5,6,7-hexahydrocyclopenta[f]indazol-5-yl]methyl}methanesulfonamide]",1.7 nM
2,"C[C@]12Cc3cnn(-c4ccc(F)cc4)c3C=C1CC[C@@H]2CN(CCc1ccccc1F)S(=O)(=O)Cc1cccnc1 [Example 124, N-[2-(2-fluorophenyl)ethyl]-N-{[(4αR,5S)-1-(4-fluorophenyl)-4α-methyl-1,4,4α,5,6,7-hexahydrocyclopenta[f]indazol-5-yl]methyl}-1-pyridin-3-ylmethanesulfonamide]",0.7 nM
3,"C[C@]12Cc3cnn(-c4ccc(F)cc4)c3C=C1CC[C@@H]2CN(CC(O)C(F)F)S(=O)(=O)Cc1cccnc1 (stereo partly drawn) [Example 154, N-(3,3-difluoro-2-hydroxypropyl)-N-{[(4αR,5S)-1-(4-fluorophenyl)-4α-methyl-1,4,4α,5,6,7-hexahydrocyclopenta[f]indazol-5-yl]methyl}-1-pyridin-3-ylmethanesulfonamide]",1.3 nM
4,"COc1ccccc1CCN(C[C@H]1CCC2=Cc3c(cnn3-c3ccc(F)cc3)C[C@@]21C)S(=O)(=O)Cc1cccc(C(F)(F)F)c1 [Example 119, N-{[(4αR,5S)-1-(4-fluorophenyl)-4α-methyl-1,4,4α,5,6,7-hexahydrocyclopenta[f]indazol-5-yl]methyl}-N-[2-(2-methoxyphenyl)ethyl]-1-[3-(trifluoromethyl)phenyl]methanesulfonamide]",2.3 nM
5,"C[C@]12Cc3cnn(-c4ccc(F)cc4)c3C=C1CC[C@@H]2CN(CCc1ccccn1)S(=O)(=O)Cc1ccncc1 [Example 166, N-{[(4αR,5S)-1-(4-fluorophenyl)-4α-methyl-1,4,4α,5,6,7-hexahydrocyclopenta[f]indazol-5-yl]methyl}-1-pyridin-4-yl-N-(2-pyridin-2-ylethyl)methanesulfonamide]",1.6 nM
6,"CN1CCOc2cc(S(=O)(=O)N(CC3CC3)C[C@H]3CCC4=Cc5c(cnn5-c5ccc(F)cc5)C[C@@]43C)ccc21 [Example 8, N-(cyclopropylmethyl)-N-{[(4αR,5S)-1-(4-fluorophenyl)-4α-methyl-1,4,4α,5,6,7-hexahydrocyclopenta[f]indazol-5-yl]methyl}-4-methyl-3,4-dihydro-2H-1,4-benzoxazine-7-sulfonamide]",1.9 nM
7,"C[C@]12Cc3cnn(-c4ccc(F)cc4)c3C=C1CC[C@@H]2CN(CC=O)S(=O)(=O)c1ccccc1F [Example 158, 2-fluoro-N-{[(4αR,5S)-1-(4-fluorophenyl)-4α-methyl-1,4,4α,5,6,7-hexahydrocyclopenta[f]indazol-5-yl]methyl}-N-(2-oxoethyl)benzenesulfonamide]",4.2 nM
8,"CCCS(=O)(=O)N(CC(O)C(F)(F)F)C[C@H]1CCC2=Cc3c(cnn3-c3ccc(F)cc3)C[C@@]21C (stereo partly drawn) [Example 148, N-{[(4αR,5S)-1-(4-fluorophenyl)-4α-methyl-1,4,4α,5,6,7-hexahydrocyclopenta[f]indazol-5-yl]methyl}-N-(3,3,3-trifluoro-2-hydroxypropyl)propane-1-sulfonamide]",1.6 nM
9,"Cn1cc(S(=O)(=O)N(CCc2ccccn2)C[C@H]2CCC3=Cc4c(cnn4-c4ccc(F)cc4)C[C@@]32C)c(C(F)(F)F)n1 [Example 150, N-{[(4αR,5S)-1-(4-fluorophenyl)-4α-methyl-1,4,4α,5,6,7-hexahydrocyclopenta[f]indazol-5-yl]methyl}-1-methyl-N-(2-pyridin-2-ylethyl)-3-(trifluoromethyl)-1H-pyrazole-4-sulfonamide]",1.5 nM

# The remaining compounds from weak to strong by Ki, led by results:
row,Ki,Compound
1,13.3 nM,"C[C@]12Cc3cnn(-c4ccc(F)cc4)c3C=C1CC[C@@H]2CN(CC(O)c1cccnc1)S(=O)(=O)CC(F)(F)F (stereo partly drawn) [Example 143, 2,2,2-trifluoro-N-{[(4αR,5S)-1-(4-fluorophenyl)-4α-methyl-1,4,4α,5,6,7-hexahydrocyclopenta[f]indazol-5-yl]methyl}-N-(2-hydroxy-2-pyridin-3-ylethyl)ethanesulfonamide]"
2,3.2 nM,"C[C@]12Cc3cnn(-c4ccc(F)cc4)c3C=C1CC[C@@H]2CN(CCC(N)C(F)(F)F)S(=O)(=O)CC(F)(F)F (stereo partly drawn) [Example 147, N-(3-amino-4,4,4-trifluorobutyl)-2,2,2-trifluoro-N-{[(4aR,5S)-1-(4-fluorophenyl)-4α-methyl-1,4,4α,5,6,7-hexahydrocyclopenta[f]indazol-5-yl]methyl}ethanesulfonamide]"
3,1.9 nM,"C[C@]12Cc3cnn(-c4ccc(F)cc4)c3C=C1CC[C@@H]2CN(CCc1ccncc1)S(=O)(=O)CC(F)(F)F [Example 129, 2,2,2-trifluoro-N-{[(4αR,5S)-1-(4-fluorophenyl)-4α-methyl-1,4,4α,5,6,7-hexahydrocyclopenta[f]indazol-5-yl]methyl}-N-(2-pyridin-4-ylethyl)ethanesulfonamide]"
4,1.7 nM,"C[C@]12Cc3cnn(-c4ccc(F)cc4)c3C=C1CC[C@@H]2CN(CCc1ccccc1O)S(=O)(=O)Cc1cccnc1 [Example 131, N-{[(4αR,5S)-1-(4-fluorophenyl)-4α-methyl-1,4,4α,5,6,7-hexahydrocyclopenta[f]indazol-5-yl]methyl}-N-[2-(2-hydroxyphenyl)ethyl]-1-pyridin-3-ylmethanesulfonamide]"
5,1.6 nM,"C[C@]12Cc3cnn(-c4ccc(F)cc4)c3C=C1CC[C@@H]2CN(CCc1ccccn1)S(=O)(=O)Cc1ccccn1 [Example 165, N-{[(4αR,5S)-1-(4-fluorophenyl)-4α-methyl-1,4,4α,5,6,7-hexahydrocyclopenta[f]indazol-5-yl]methyl}-1-pyridin-2-yl-N-(2-pyridin-2-ylethyl)methanesulfonamide]"
6,0.9 nM,"C[C@]12Cc3cnn(-c4ccc(F)cc4)c3C=C1CC[C@@H]2CN(CC(O)c1ccncc1)S(=O)(=O)CC(F)(F)F (stereo partly drawn) [Example 144, 2,2,2-trifluoro-N-{[(4αR,5S)-1-(4-fluorophenyl)-4α-methyl-1,4,4α,5,6,7-hexahydrocyclopenta[f]indazol-5-yl]methyl}-N-(2-hydroxy-2-pyridin-4-ylethyl)ethanesulfonamide]"
7,0.8 nM,"Cn1cc(S(=O)(=O)N(CC(O)c2ccccn2)C[C@H]2CCC3=Cc4c(cnn4-c4ccc(F)cc4)C[C@@]32C)c(C(F)(F)F)n1 (stereo partly drawn) [Example 157, N-{[(4αR,5S)-1-(4-fluorophenyl)-4α-methyl-1,4,4α,5,6,7-hexahydrocyclopenta[f]indazol-5-yl]methyl}-N-(2-hydroxy-2-pyridin-2-ylethyl)-1-methyl-3-(trifluoromethyl)-1H-pyrazole-4-sulfonamide]"
